{
  "source": "patent US6949558B2",
  "about": "“Enhancement of taxane-based chemotherapy by a CDK1 antagonist” (Yale University, priority 2001, dated 2005)",
  "key": {"[1]": {"test_system": "survivin expression in MCF-7 cells", "test": "Survivin expression by Western blotting in MCF-7 cells", "assay_type": "cell-based, human", "description": "(§1) Cell Cultures, Proteins and Antibodies: Breast carcinoma MCF-7 and cervical carcinoma HeLa cells (American Type Culture Collection, Manassas, Va.) were maintained in culture according to the manufacturer's specifications. For treatment with genotoxic agents, HeLa or MCF-7 cells were incubated with vehicle (DMSO) or taxol (2 μM, Sigma Chemical Co., St. Louis, Mo.), adriamycin (100 nM, Sigma), cis-platin (3 μM, Sigma) or subjected to ultraviolet B (UVB) irradiation at 50 or 300 J/m^2. In some experiments, HeLa or MCF-7 treated with taxol, adriamycin or UVB as described above were incubated with inhibitors of transcription (actinomycin D, 1 μg/ml) or translation (cycloheximide, 2 mg/ml) before determination of protein expression by Western blotting. […] A replication-deficient adenovirus encoding wild type survivin (pAd-Survivin) or control encoding Green Fluorescence Protein (pAd-GFP) was generated using the pAd-Easy system as described previously (M. Mesri et al. (2001) J. Clin. Invest. 108: 981-90), and propagated in HEK293 cells with purification by CsCl banding. […] Antibodies to p34^cdc2 or bcl-2 were obtained from Pharmingen (San Diego, Calif.) and R&D, respectively. An antibody to β-actin was from Sigma and antibodies to MPM-2 mitotic phosphoproteins was from Upstate Biotechnology (Lake Placid, N.Y.).\n(§2) In some experiments, total RNA was extracted from MCF-7 cells at various time intervals after adriamycin treatment, and hybridized with 32 P-labeled survivin cDNA as described previously. Radioactive bands were detected by autoradiography. […] In other experiments, samples were transferred to nylon membranes and analyzed by Western blotting with antibodies to p34^cdc2 (1 μg/ml), survivin (2 μg/ml), or survivinT34* (5 μg/ml)."}, "HeLa cells": {"test_system": "HeLa cells", "test": "Apoptosis by DNA content analysis and flow cytometry in HeLa cells", "assay_type": "cell-based, human", "settings": "increasing flavopiridol concentrations, 48 h"}, "p34^cdc2": {"target": "T1, p34^cdc2 (Homo sapiens, UniProt P06493)", "T1 construct": "endogenous in cells; host or cells: HeLa cervical carcinoma cells (ATCC)", "T1 sequence (P06493 whole entry)": "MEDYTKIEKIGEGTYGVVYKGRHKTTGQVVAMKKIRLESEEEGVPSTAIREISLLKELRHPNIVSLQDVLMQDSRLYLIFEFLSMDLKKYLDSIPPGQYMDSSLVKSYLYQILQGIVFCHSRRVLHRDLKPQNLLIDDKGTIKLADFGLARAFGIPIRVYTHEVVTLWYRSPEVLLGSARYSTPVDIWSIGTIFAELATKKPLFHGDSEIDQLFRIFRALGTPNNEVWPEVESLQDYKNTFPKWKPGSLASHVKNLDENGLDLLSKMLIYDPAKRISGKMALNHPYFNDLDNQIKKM", "T1 sequence (P14635 whole entry partner)": "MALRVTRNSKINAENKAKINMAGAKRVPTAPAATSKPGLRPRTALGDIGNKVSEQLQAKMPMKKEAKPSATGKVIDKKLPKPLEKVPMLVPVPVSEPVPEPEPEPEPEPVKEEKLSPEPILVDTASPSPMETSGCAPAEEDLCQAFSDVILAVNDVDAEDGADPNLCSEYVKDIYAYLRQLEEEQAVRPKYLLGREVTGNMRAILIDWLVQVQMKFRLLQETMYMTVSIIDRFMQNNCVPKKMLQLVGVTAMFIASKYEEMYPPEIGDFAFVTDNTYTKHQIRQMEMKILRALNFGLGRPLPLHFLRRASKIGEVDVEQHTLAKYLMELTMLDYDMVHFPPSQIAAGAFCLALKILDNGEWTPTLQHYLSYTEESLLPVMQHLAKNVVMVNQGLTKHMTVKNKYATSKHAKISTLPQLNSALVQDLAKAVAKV", "test": "H1 phosphorylation by p34^cdc2 immunoprecipitated from treated HeLa cells", "assay_type": "cell-based", "settings": "increasing concentrations of flavopiridol, 24 h", "description": "(§3) A. In vitro kinase assay. […] Radioactive bands were detected by autoradiography. […] The immune complexesb were analyzed by Western blotting (WB) with an antibody to Thr^34-phosphorylated survivin (a-survivinT34*, top panel) or with an antibody to survivin (a-survivin, lower panel) followed by chemiluminescence. For all panels, relative molecular weight markers in kDa are shown on the left.\nas §2"}, "p34^cdc2-cyclin B1": {"target": "p34^cdc2-cyclin B1 (Homo sapiens, UniProt P06493)", "sequence (P06493 whole entry)": "as the sequence (P06493 whole entry) above", "sequence (P14635 whole entry partner)": "as the sequence (P14635 whole entry partner) above", "test": "In vitro kinase assay with baculovirus-expressed p34^cdc2-cyclin B1", "assay_type": "biochemical", "settings": "100 nM flavopiridol", "description": "as §3, §2"}, "MCF-7 xenografts": {"test_system": "MCF-7 xenografts", "assay_type": "in vivo", "settings": "adriamycin 2 mg/kg or flavopiridol 15 mg/kg alone, i.p.", "excerpt": "Each complete cycle was separated by 2 d without treatment.\nThis test generates a P value testing the null hypothesis that the survival curves are identical in the overall populations."}, "[2]": {"test_system": "survivin expression in HeLa cells", "test": "Survivin expression by Western blotting in HeLa cells", "assay_type": "cell-based, human", "description": "as §1, §2\nIn other experiments, HeLa cells were treated with taxol (0.2 μM) for 16 h followed by the DNA damaging agent adriamycin (100 nM, Sigma) or the nucleoside analog 5-Fluorouracil (500 μM, Sigma) for 8-32 h at 37° C. […] In some experiments, HeLa cells were transfected by lipofectamine with a minimal survivin promoter construct upstream of a luciferase reporter gene (pLuc-cyc1.2), as described (F. Li et al. (1998) Nature 396: 580-584). Cells were treated with taxol (2 μM) or UVB (50 J/m2), and analyzed for changes in luciferase activity at increasing time intervals (12-36 h) in a luminometer. Luciferase values were normalized to β-galactosidase expression. […] The immune complexes were separated by SDS gel electrophoresis and analyzed with antibodies to survivin or a-survivinT34* by Western blotting."}, "[3]": {"test_system": "survivin phosphorylation on Thr^34 in HeLa cells", "test": "Survivin phosphorylation on Thr^34 in HeLa cells (immunoprecipitation, Western blotting)", "assay_type": "cell-based, human", "settings": "increasing concentrations of flavopiridol, 24 h", "description": "as §3, §2\nLuciferase values were normalized to β-galactosidase expression."}, "[4]": {"test_system": "Bcl-2 expression in HeLa cells", "test": "Bcl-2 expression by Western blotting in HeLa cells", "assay_type": "cell-based, human", "settings": "flavopiridol, 48 h", "description": "A. Concentration-dependence. […] B. Time-course. […] C. […] The experimental conditions are the same as in A, except that flavopiridol-treated HeLa cells were analyzed by Western blotting with an antibody to Bcl-2. D. Effect of genistein or TNF a on survivin expression. HeLa cells were treated with the tyrosine kinase inhibitor genistein (25 μM) or TNF a (5 ng/ml) for 48 h, harvested and analyzed for survivin expression by Western blotting. For all panels, relative molecular weight markers in kDa are shown on the left. E. Flavopiridol-induced apoptosis. […] The percentage of apoptotic cells with sub-G1DNA content is indicated. Insert, nuclear morphology of apoptosis (DNA fragmentation, chromatin condensation) in untreated or flavopiridol-treated HeLa cells, by DAPI staining.\nas §2"}, "[5]": {"test_system": "survivin phosphorylation on Thr^34 in MCF-7 cells", "test": "Survivin phosphorylation on Thr^34 in MCF-7 cells", "assay_type": "cell-based, human", "settings": "flavopiridol in the presence of 100 nM adriamycin", "description": "as §2"}, "[6]": {"test_system": "p34^cdc2 kinase activity (MPM-2 epitope) in HeLa cells", "test": "MPM-2 mitotic phosphoepitope expression (p34^cdc2 kinase activity) in HeLa cells", "assay_type": "cell-based, human", "settings": "HeLa"}},
  "data": [
    {"smiles": "CN1CC[C@H](c2c(O)cc(O)c3c(=O)cc(-c4ccccc4Cl)oc23)[C@H](O)C1", "note": "[flavopiridol]", "values": [
      {"measurement": "survivin levels", "setting": "[1]; anti-cancer agents (adriamycin, UVB) 18 h followed by flavopiridol 72 h", "value": "suppressed survivin levels to background values of untreated cultures"},
      {"measurement": "survivin levels", "setting": "[1]; flavopiridol alone 100 nM for 72 h", "value": "did not significantly affect survivin levels"},
      {"measurement": "population with hypodiploid (apoptotic) DNA content", "setting": "HeLa cells", "value": "concentration-dependent increase in the population with hypodiploid (apoptotic) DNA content"},
      {"measurement": "H1 phosphorylation by immunoprecipitated p34^cdc2", "setting": "p34^cdc2", "value": "dose-dependent inhibition of H1 phosphorylation"},
      {"measurement": "phosphorylation of H1 and wild type survivin by p34^cdc2-cyclin B1", "setting": "p34^cdc2-cyclin B1", "value": "suppressed phosphorylation of H1 and wild type survivin"},
      {"measurement": "kinetics of tumor growth vs vehicle", "setting": "MCF-7 xenografts", "value": "did not affect the kinetics of tumor growth"},
      {"measurement": "survivin expression", "setting": "[2]; 1 and 25 nM flavopiridol and between 12 and 72 hours", "value": "modest increase in survivin expression"},
      {"measurement": "survivin expression", "setting": "[2]; flavopiridol 100 nM, 84-96 h treatment", "value": "Nearly complete loss of survivin expression"},
      {"measurement": "survivin expression", "setting": "[2]; higher flavopiridol concentrations, 24 h", "value": "complete loss of survivin expression"},
      {"measurement": "survivin expression, concentration dependence", "setting": "[2]; increasing flavopiridol concentrations, 48 h", "value": "concentration-dependent decrease in survivin expression"},
      {"measurement": "survivin phosphorylation on Thr^34", "setting": "[3]", "value": "concentration-dependent inhibition of phosphorylation on Thr^34"},
      {"measurement": "Bcl-2 expression", "setting": "[4]", "value": "did not affect expression of antiapoptotic Bcl-2"},
      {"measurement": "survivin phosphorylation on Thr^34", "setting": "[5]", "value": "suppressed survivin phosphorylation on Thr^34"},
      {"measurement": "MPM-2 mitotic phosphoepitope expression", "setting": "[6]; taxol 0.2 μM 16 h then Cdk inhibitor for 16 h (Purvalanol A 10 μM, alsterpaullone 20 μM, flavopiridol 250 nM, olomoucine 400 μM)", "value": "partially inhibited MPM-2 expression"},
      {"measurement": "MPM-2 mitotic phosphoepitope expression", "setting": "[6]; taxol 0.2 μM 16 h then Cdk inhibitor for 32 h", "value": "suppressed mitotic phosphoprotein expression"}
    ]}
  ]
}
